Consider 14 compounds from US4585861A, “1,2,4-triazine derivatives” (Eli Lilly and Company, priority 1985, dated 1986).

pEC50: −log10 of the molar value.

Assay [1] in a line: Mouse Writhing Inhibition Assay. Type of assay: in vivo, Cox standard strain albino male mice. The settings on record: oral gavage 60 min before acetic acid 55 mg./kg. i.p., active = less than ten writhes, read-out: Minimum active oral dose, Mouse Writhing. How it is done: Writhing, which is characterized by contraction of the abdominal musculature, extension of the hindlegs, and rotation of the trunk, was induced in Cox standard strain albino male mice. The mice, weighing 18-24 grams, were fasted overnight and given the test compound by gavage in an acacia suspension (5%) 60 minutes before writhing was induced by the intraperitoneal administration of 55 mg./kg. of acetic acid (0.55 percent). Each treatment group consisted of 3 mice. The total number of writhes for the treatment group was determined during a 5-minute observation starting 5 minutes after acetic acid administration.
A general note: An intraperitoneal irritant provokes the stretching counted in writhing tests.

Assay [2] is described as follows: Electroshock Induced Convulsion Inhibition Assay. It counts as in vivo, Cox standard strain albino male mice. The settings on record: Mus musculus; oral; 0.1 second, 50 milliampere corneal electroshock; active = total score of 6 or less; read-out: Minimum active oral dose, Electro-Shock. The method, then: (§1) In this assay, a compound to be tested was suspended in acacia (5%) and administered by gavage to each of three Cox standard strain albino male mice (18-24 grams) at the dose level being investigated. One hour after the oral administration, a water solution of metrazole (pentylenetetrazole) was administered by the intraperitoneal route to each mouse at a dose of 110 mg./kg. […] A score of 0 was assigned to a mouse not showing any signs of convulsant activity; a score of 1 was given to mice developing clonic convulsions; a score of 2 was given to mice showing flexor tonic convulsions; a score of 3 was given to mice showing extensor tonic convulsions; and a score of 4 was given to mice that died within the one hour. The scores of the three mice were totalled for each compound and dose level. The scores can range from 0 to 12; a score of 6 or less was interpreted as indicative of an active compound at that dose level. Values reported in Table 2 below are the minimum oral dose levels (mg./kg.) where activity as defined above was observed.
The drug administration and test conditions used in this assay were similar to those used in the metrazole induced convulsion inhibition assay above except that a 0.1 second, 50 milliampere electroshock through corneal electrodes induced the convulsion instead of metrazole. The animals were examined and evaluated immediately after the electroshock and were scored as before. The results in Table 2 are expressed as the lowest dose of each compound tested which was active as previously defined. For comparison, 18 milliamperes was usually sufficient to produce extensor tonic convulsions in about half of the control animals; at 50 milliamperes, almost all control animals died. Diazepam was active at about 1 mg./kg.

In the next assay the target is GABA receptor. In words: In vitro activation of GABA binding ([3H]GABA, Triton X-100 treated membrane protein). Conditions: average of one or more tests, read-out: SC50 GABA (nanomolar concentration producing a 50% increase in binding). The method, then: (§2) The novel compounds of this invention were examined for their in vitro ability to activate GABA and benzodiazepine (BZ) binding. To measure the effect of a compound on GABA binding, Triton X-100 (octylphenoxy polyethoxyethanol, Rohm and Haas Co.) treated membrane protein was incubated in the presence of the compound and [^3 H]GABA as detailed by Horng and Wong, J. Neurochemistry, 32 (5), 1379 (1979). To examine BZ binding, H-flunirazepam and the compounds were incubated with native membrane protein as reported by Wong, et al, Brain Res. Bull., 5 (Suppl. 2), 853 (1980). The results in Table 1 are the nanomolar concentrations of compounds (by Example No.) which produced a 50 percent increase (SC50) in GABA or BZ binding. Each result is the average of one or more tests.

The next assay deals with benzodiazepine receptor. Briefly: In vitro activation of benzodiazepine (BZ) binding (flunirazepam, native membrane protein). The settings on record: average of one or more tests, read-out: SC50 BZ (nanomolar concentration producing a 50% increase in binding). How it is done:
as §2

Assay [3] is described as follows: Metrazole Induced Convulsion Inhibition Assay. Conditions: Mus musculus; oral gavage, 1 h before metrazole 110 mg./kg. i.p.; active = total score of 6 or less (3 mice, range 0-12); read-out: Minimum active oral dose, Metrazole. Type of assay: in vivo, Cox standard strain albino male mice. How it is done:
as §1

Assay [4] in a line: Appetite Suppression Assay. Type of assay: in vivo, Cox standard strain albino male mice. Conditions: Mus musculus; oral gavage 30 min before feeding; active = weight gain of less than 10% of weight lost on fasting; read-out: Minimum active oral dose, Appetite Suppression. How it is done:
In this test, groups of three Cox standard strain albino male mice were weighed (18-24 grams) and then fasted overnight (16-18 hours). The mice were reweighed and then given the test compound in a suspension of acacia (5%) by gavage. Thirty minutes after oral administration, the mice were allowed to eat freely for one hour. After the eating period, the mice were weighed once more. The percent of weight gained (from the time the mice were given the test compound to after the feeding period) compared to weight lost during the fast period was calculated. The non-drug treated control animals gained back 35-55% of the weight lost on fasting. Any compound at the dose level tested which produced a weight gain of less than 10% was considered to be active. The results in Table 2 report the lowest dose level in which there was activity for each compound tested. Dextroamphetamine sulfate is active in this system at about 2.5 mg./kg.

For the compound `CC(=O)OC1CCN(c2nnc(-c3ccccc3C)c(-c3ccccc3C)n2)CC1` [Example 14, 1-[5,6-bis(2-methylphenyl)-1,2,4-triazin-3-yl]-4-piperidinol, acetate (ester)], the minimal effective dose in assay [1] is over 200 mg/kg; in assay [2] it was over 200 mg/kg; in assay [3], 200 mg/kg; in assay [4], 200 mg/kg. Further, the pEC50 on GABA receptor was 7.22; on benzodiazepine receptor it was 6.00.

In the case of `CCC(=O)OC1CCN(c2nnc(-c3ccc(C)cc3)c(-c3ccc(C)cc3)n2)CC1` [Example 15, 1-[5,6-bis(4-methylphenyl)-1,2,4-triazin-3-yl]-4-piperidinol, propanoate (ester)], the minimal effective dose in assay [1], in assay [2], in assay [3] and in assay [4] was 12.5 mg/kg each time. In addition, the pEC50 is 8.00 on GABA receptor and 7.72 on benzodiazepine receptor.

For `Cc1ccc(-c2nnc(N3CCC(OC(=O)c4ccccc4)CC3)nc2-c2ccc(C)cc2)cc1` [Example 17, 1-[5,6-bis(4-methylphenyl)-1,2,4-triazin-3-yl]-4-piperidinol, benzoate (ester)], the minimal effective dose in assay [1], in assay [2], in assay [3] and in assay [4] was over 200 mg/kg throughout. Besides, the pEC50 at GABA receptor is 6.30; at benzodiazepine receptor, 6.00.

Take `Cc1ccc(-c2nnc(N3CCCCC3)nc2-c2ccc(C)cc2)cc1` [Example 20, 5,6-bis(4-methylphenyl)-3-(1-piperidinyl)-1,2,4-triazine]: the minimal effective dose in assay [1] was found to be 12.5 mg/kg; in assay [2] it was 50 mg/kg; in assay [3], 12.5 mg/kg; in assay [4] it was 12.5 mg/kg. The pEC50 on GABA receptor is 5.28; at benzodiazepine receptor, 6.29.

For the compound `Cc1ccc(-c2nnc(N3CCCCCC3)nc2-c2ccc(C)cc2)cc1` [Example 21, 1-[5,6-bis(4-methylphenyl)-1,2,4-triazin-3-yl]-hexahydro-1H-azepine], the minimal effective dose in assay [1], in assay [2], in assay [3] and in assay [4] was over 200 mg/kg each time. Further, the values for the pEC50 on GABA receptor and on benzodiazepine receptor were 5.70 and 6.22, respectively.

Take `Cc1ccc(-c2nnc(N3CCCC(O)C3)nc2-c2ccc(C)cc2)cc1` (stereo not drawn) [Example 23, 1-[5,6-bis(4-methylphenyl)-1,2,4-triazin-3-yl]-3-piperidinol]: the minimal effective dose in assay [1] came out at 12.5 mg/kg; in assay [2], 50 mg/kg; in assay [3], 50 mg/kg; in assay [4] it was 12.5 mg/kg. For the same compound, the pEC50 on GABA receptor is 6.40; at benzodiazepine receptor, 6.15.

As to `CC(=O)OC1CCCN(c2nnc(-c3ccc(C)cc3)c(-c3ccc(C)cc3)n2)C1` (stereo not drawn) [Example 24, 1-[5,6-bis(4-methylphenyl)-1,2,4-triazine-3-yl]-3-piperidinol, acetate (ester)], the minimal effective dose in assay [1], in assay [2], in assay [3] and in assay [4] was over 200 mg/kg throughout. Moreover, the pEC50 at GABA receptor was 6.80; at benzodiazepine receptor it was 6.74.

Regarding `COC1CCN(c2nnc(-c3ccc(C)cc3)c(-c3ccc(C)cc3)n2)CC1` [Example 26, 3-(4-methoxy-1-piperidinyl)-5,6-bis(4-methylphenyl)-1,2,4-triazine], the minimal effective dose in assay [1], in assay [2], in assay [3] and in assay [4] was 6.2 mg/kg throughout. Further, the pEC50 was 7.10 on GABA receptor and 7.05 on benzodiazepine receptor.

For `Cc1ccc(-c2nnc(N3CCC(OC(=O)Oc4ccccc4)CC3)nc2-c2ccc(C)cc2)cc1` [Example 28, carbonic acid, 1-[5,6-bis(4-methylphenyl)-1,2,4-triazin-3-yl]-4-piperidinyl phenyl ester], the minimal effective dose in assay [1], in assay [2], in assay [3] and in assay [4] was over 200 mg/kg each time. For the same compound, the values for the pEC50 on GABA receptor and at benzodiazepine receptor were 6.80 and 6.19, respectively.

Regarding `Cc1ccc(-c2nnc(N3CCC(OC(N)=O)CC3)nc2-c2ccc(C)cc2)cc1` [Example 29, 1-[5,6-bis(4-methylphenyl)-1,2,4-triazin-3-yl]-4-piperidinol, carbamate (ester)], the minimal effective dose in assay [1] is 1.56 mg/kg; in assay [2], over 6.25 mg/kg; in assay [3] it was over 6.25 mg/kg; in assay [4] it was 0.4 mg/kg. The pEC50 is 7.25 at GABA receptor and 7.82 on benzodiazepine receptor.

Turning to `Cc1ccc(-c2nnc(N3CCC(OS(C)(=O)=O)CC3)nc2-c2ccc(C)cc2)cc1` [Example 32, 1-[5,6-bis(4-methylphenyl)-1,2,4-triazin-3-yl]-4-piperidinol, methane sulfonate (ester)], the minimal effective dose in assay [1] was 0.4 mg/kg; in assay [2] it was over 6.25 mg/kg; in assay [3], over 6.25 mg/kg; in assay [4] it was 0.4 mg/kg. Also, the pEC50 was 7.17 on GABA receptor and 8.22 on benzodiazepine receptor.

Consider `Cc1ccc(-c2nnc(N3CCC(OS(=O)(=O)c4ccc(C)cc4)CC3)nc2-c2ccc(C)cc2)cc1` [Example 33, 1-[5,6-bis(4-methylphenyl)-1,2,4-triazin-3-yl]-4-piperidinol, 4-methylbenzene sulfonate (ester)], for which the minimal effective dose in assay [1], in assay [2], in assay [3] and in assay [4] was over 200 mg/kg throughout. Moreover, the pEC50 was 5.10 on GABA receptor and 5.92 at benzodiazepine receptor.

For the compound `CCOC(=O)C1CCN(c2nnc(-c3ccc(C)cc3)c(-c3ccc(C)cc3)n2)CC1` [Example 35, 1-[5,6-bis(4-methylphenyl)-1,2,4-triazin-3-yl]-4-piperidinecarboxylic acid, ethyl ester], the minimal effective dose in assay [1], in assay [2], in assay [3] and in assay [4] was over 200 mg/kg throughout. The figures for the pEC50 on GABA receptor and on benzodiazepine receptor were 7.92 and 7.74, respectively.

As to `Cc1ccc(-c2nnc(N3CCC4(CC3)OCCO4)nc2-c2ccc(C)cc2)cc1` [Example 38, 8-[5,6-bis(4-methylphenyl)-1,2,4-triazin-3-yl]-1,4-dioxa-8-azaspiro(4.5)decane], the minimal effective dose in assay [1], in assay [2], in assay [3] and in assay [4] was over 200 mg/kg throughout. The values for the pEC50 on GABA receptor and on benzodiazepine receptor were under 5.00 and 5.10, respectively.
